The test system of this test is P. falciparum 3D7 growth, pLDH absorbance. The experiment in a line: blood-stage malaria parasite growth potency – strain 3D7, dose response (AID 2305).
For `Cc1c(CCNC(=O)CCCN2CC(C)CC(C)C2)c2ccccc2n1C` (centres undefined), the IC50 was 1270 nM. The result for `CC[C@H]1CN(C/C=C/c2ccc(OC)cc2)CC[C@H]1CCCc1ccnc2ccc(O)cc12` reads 660 nM; that for `C[C@@H](CC1CCCCC1)NCc1ccccc1O`, 930 nM; that for `CN1CCCC(CN2CCN(Cc3cccc(-c4cccc(-c5nc6ccccc6[nH]5)c4)c3)CC2)C1` (centres undefined), 140 nM.

The molecule `Nc1c2c(nc3ccc(NC(=O)CCCCCCc4ccccc4)cc13)CCCC2` gave a half-maximal inhibitory concentration (IC50) of 250 nM. Molecule `CS(=O)(=O)NCCCNCc1cccc(-c2cccc(-c3nc4ccc(F)cc4[nH]3)c2)c1` gave an IC50 of 940 nM. In turn, `COc1ccc(-c2nc3cccnc3n2CC(=O)Nc2cc(Cl)c(Cl)cc2Cl)c(OC)c1` yielded an IC50 of 720 nM. `COc1cc(Cc2cnc(N)nc2N)cc(OCCCCC#N)c1OC` displayed an IC50 of 1040 nM. `CC(=O)Oc1c(C2CCN(CCCCNC(=O)c3ccc(NC(=O)c4ccc(Cl)cc4)cc3)CC2)ccc2ccccc12` came in with an IC50 of 880 nM.

`O=c1cc(NCCCNCc2cc(C(F)(F)F)ccc2F)[nH]c2ccccc12` showed an IC50 of 830 nM.

Regarding `CCn1cc(-c2cc(C(=O)Nc3ccc(OC)cc3C)c3ccccc3n2)c(C)n1`, the IC50 was found to be 980 nM. As to `Nc1ccc(-c2ccc3ccnc(N)c3c2)cc1`, the IC50 was found to be 680 nM. The molecule `CC(=O)Oc1ccc(C(=O)Oc2ccccc2C#CC#N)cc1OC(C)=O` came in with an IC50 of 320 nM. In turn, `CCN(CC)C(=O)C1CCCN(C(=O)Nc2cc(C(F)(F)F)cc(C(F)(F)F)c2)C1` (centres undefined) returned an IC50 of 1000 nM. Turning to `CCNc1cc(C(=O)N[C@@H](Cc2ccccc2)[C@H](O)CNCc2cc(OC)cc(OC)c2)cc(N2CCCC2=O)c1`, the concentration for half-maximal inhibition (IC50) is 740 nM.

The molecule `COc1ccc2nccc([C@@H](O)CN3CCC(NCC(=O)Nc4cc(F)cc(F)c4)CC3)c2n1` registered an IC50 of 910 nM. `COc1ccc2nccc([C@@H](O)CN3CCC(NCc4ccc5c(c4)N(C)C(=O)CO5)CC3)c2c1`: the IC50 amounted to 750 nM.

In the case of `O=C(Nc1cccc(CN2CCCN(Cc3cccc(O)c3)CC2)c1)c1ccc2ccccc2c1`, the IC50 amounted to 790 nM. Next, `Cc1cc(C(=O)N[C@H]2CCN(Cc3ccc(OCCCN(C)C)cc3)C2)ccc1Br`: 900 nM; `COc1ccc(N2CCN(CCCCNC(=O)c3ccc(NC(=O)c4ccc(OC(F)(F)F)cc4)cc3)CC2)c(OC)c1`: 580 nM. Next, `ON=C1c2cc(OCCN3CCCCC3)c(Cl)cc2-c2cc(Cl)c(OCCN3CCCCC3)cc21`: 700 nM; `NC(=O)Nc1ccc2c(Nc3ccc(OCc4ccccc4)cc3)ncnc2c1`: 1260 nM. Next, `O=C(Nc1ccccc1Cl)c1cc2ccccc2cc1O`: 1010 nM; `CCCCNCc1ccc(-c2nc(CN(CCCN3CCN(C)CC3)C(=O)Nc3cccc(Cl)c3)cs2)cc1`: 970 nM; `Fc1ccc2nc(-c3cccc(-c4cccc(CN5CCN(c6cnccn6)CC5)c4)c3)[nH]c2c1`: 1060 nM. For the molecule `O=C(Nc1ccsc1)Nc1cccc(-c2cccc(-c3nc4ccc(F)cc4[nH]3)c2)c1`, the IC50 amounted to 200 nM. Take `CCN(CC)C(C)(C)CN(Cc1ccc(-c2ccc(C(F)(F)F)cc2)cc1)C(=O)Cn1c(CCc2cccc(F)c2F)nc(=O)c2ccccc21`: the IC50 was determined as 960 nM. `Nc1nccc2ccc(-c3ccncc3)cc12` gave an IC50 of 250 nM. Turning to `COc1ccc(NC(=O)[C@H](Cc2ccccc2)Nc2cc(C)nc(Nc3ccccc3)n2)cc1`, the IC50 was found to be 1010 nM.

As for `COc1ccc(-c2ccc(CNC(=O)c3cccc(C#N)c3)c(F)c2)cc1CN1CCCN(C)CC1`, the 50% inhibitory concentration (IC50) was determined as 800 nM. In turn, `COc1cccc(C(=O)[C@H]2C[C@@H]2CN(C)CCC(O)c2ccc(Cl)c(Cl)c2)c1` (some centres undefined) showed an IC50 of 760 nM. `Cc1cc(-c2ccc(NC(=O)Nc3ccc4nccc(N5CCN(C)CC5)c4c3)cc2C)cc(C)n1`: the IC50 was 150 nM.

Turning to `CCn1c(-c2nonc2N)nc2c(C#CC(C)(C)O)ncc(OCCNCCc3ccc(OC)cc3)c21`, the IC50 was found to be 960 nM. The molecule `O=C(C=Cc1ccc(Cl)c(Cl)c1)NCCCCCN1CCCC(CCCNS(=O)(=O)c2cccc3cccnc23)C1` (centres undefined) displayed a half-maximal inhibitory concentration (IC50) of 1000 nM.

In general, IC50 refers to the midpoint of a concentration-inhibition curve. A low value points to greater potency in that assay.

Source of the values: PubChem BioAssay AID2305 (GlaxoSmithKline (GSK), 2010).
